Values after ≈ are worked out from the molar mass of the structure shown.
How the values were obtained:
[1] = tested on: vancomycin-resistant enterococci; assay: broth micro-dilution, mean geometric MIC; format: cell-based, Enterococcus faecium and Enterococcus faecalis; details: enterococci, 24-hour incubation
[2] = tested on: Staphylococcus aureus 447; assay: broth micro-dilution MIC; format: cell-based
Procedure: (§1) The MIC's were determined using a standard broth micro-dilution assay.

[3] = tested on: Staphylococcus aureus SA1199A; assay: broth micro-dilution MIC; format: cell-based
Procedure: as §1

[4] = tested on: Staphylococcus aureus 446; assay: broth micro-dilution MIC; format: cell-based
Procedure: as §1

[5] = tested on: Staphylococcus aureus X400; assay: broth micro-dilution MIC; format: cell-based
Procedure: as §1

[6] = tested on: Staphylococcus aureus SA1199; assay: broth micro-dilution MIC; format: cell-based
Procedure: as §1

[7] = tested on: Staphylococcus aureus 491; assay: broth micro-dilution MIC; format: cell-based
Procedure: as §1

Entercoccus faecium 276 = assay: broth micro-dilution MIC; format: cell-based
Procedure: as §1

[8] = tested on: Entercoccus faecium 180-1; assay: broth micro-dilution MIC; format: cell-based
Procedure: as §1

[9] = tested on: Staphylococcus aureus 489; assay: broth micro-dilution MIC; format: cell-based
Procedure: as §1

[10] = tested on: Staphylococcus aureus X778; assay: broth micro-dilution MIC; format: cell-based
Procedure: as §1

[11] = tested on: Streptococcus pyogenes C203; assay: broth micro-dilution MIC; format: cell-based
Procedure: as §1

[12] = tested on: vancomycin-susceptible enterococci; assay: broth micro-dilution, mean geometric MIC; format: cell-based, Enterococcus faecium and Enterococcus faecalis; details: enterococci, 24-hour incubation
[13] = tested on: Staphylococcus aureus SA1199B; format: cell-based
Procedure: as §1

[14] = tested on: Staphylococcus aureus S13E; format: cell-based
Procedure: as §1

[15] = tested on: Haemophilus influenzae RD; assay: broth micro-dilution MIC; format: cell-based; details: Haemophilus influenzae RD
Procedure: (§2) The formula I compounds have in vitro and in vivo activity against Gram-positive pathogenic bacteria. The MIC's were determined using a standard broth micro-dilution assay.

[16] = tested on: Staphylococcus epidermidis 270; assay: broth micro-dilution MIC; format: cell-based
Procedure: as §2

[17] = tested on: Streptococcus pneumoniae P1; assay: broth micro-dilution MIC; format: cell-based
Procedure: as §2

Entercoccus faecium 180 = assay: broth micro-dilution MIC; format: cell-based; details: Entercoccus faecium 180
Procedure: as §2

Entercoccus faecium 2041 = assay: broth micro-dilution MIC; format: cell-based; details: Entercoccus faecium 2041
Procedure: as §2

[18] = tested on: Enterococcus gallinarum 245; assay: broth micro-dilution MIC; format: cell-based; details: Enterococcus gallinarum 245
Procedure: as §2

[19] = tested on: Staphylococcus haemolyticus 105; assay: broth micro-dilution MIC; format: cell-based
Procedure: as §2

[20] = tested on: Staphylococcus haemolyticus 415; assay: broth micro-dilution MIC; format: cell-based
Procedure: as §2

Structure (SMILES)	mean geometric MIC, Vancomycin Resistant Strains [1]	MIC [2]	MIC [3]	MIC [4]	MIC [5]	MIC [6]	MIC [7]	MIC (Entercoccus faecium 276)	MIC [8]	MIC [9]	MIC [10]	MIC [11]	mean geometric MIC, Vancomycin Sensitive Strains [12]	MIC [13]	MIC [14]	MIC [15]	MIC [16]	MIC [17]	MIC (Entercoccus faecium 180)	MIC (Entercoccus faecium 2041)	other results
CNC(CC(C)C)C(=O)NC1C(=O)NC(CC(N)=O)C(=O)NC2C(=O)NC3C(=O)NC(C(=O)NC(C(=O)O)c4cc(O)cc(O)c4-c4cc3ccc4O)C(OC3CC(C)(N)C(O)C(C)O3)c3ccc(c(Cl)c3)Oc3cc2cc(c3OC2OC(CO)C(O)C(O)C2OC2CC(C)(NCc3c4c(cc5ccccc35)CCCC4)C(O)C(C)O2)Oc2ccc(cc2Cl)C1O (stereo not drawn) [Compound 156]	5.7 µg/mL	1 µg/mL (≈ 0.56 µM)	≤ 0.06 µg/mL	2 µg/mL (≈ 1.12 µM)	2 µg/mL (≈ 1.12 µM)	1 µg/mL (≈ 0.56 µM)	1 µg/mL (≈ 0.56 µM)	2 µg/mL (≈ 1.12 µM)	≤ 0.06 µg/mL	1 µg/mL (≈ 0.56 µM)	1 µg/mL (≈ 0.56 µM)	≤ 0.06 µg/mL	0.17 µg/mL	0.5 µg/mL (≈ 0.28 µM)	1 µg/mL (≈ 0.56 µM)	2 µg/mL (≈ 1.12 µM)	1 µg/mL (≈ 0.56 µM)	≤ 0.06 µg/mL	1 µg/mL (≈ 0.56 µM)	0.5 µg/mL (≈ 0.28 µM)	MIC [18]: 2 µg/mL (≈ 1.12 µM); MIC [19]: 4 µg/mL (≈ 2.24 µM); MIC [20]: 2 µg/mL (≈ 1.12 µM)
CNC(CC(C)C)C(=O)NC1C(=O)NC(CC(N)=O)C(=O)NC2C(=O)NC3C(=O)NC(C(=O)NC(C(=O)O)c4cc(O)cc(O)c4-c4cc3ccc4O)C(OC3CC(C)(N)C(O)C(C)O3)c3ccc(c(Cl)c3)Oc3cc2cc(c3OC2OC(CO)C(O)C(O)C2OC2CC(C)(NCCCCc3ccc(OC)cc3)C(O)C(C)O2)Oc2ccc(cc2Cl)C1O (stereo not drawn) [Compound 172]	3.4 µg/mL	0.5 µg/mL (≈ 0.285 µM)	≤ 0.06 µg/mL	4 µg/mL (≈ 2.28 µM)	0.5 µg/mL (≈ 0.285 µM)	1 µg/mL (≈ 0.57 µM)	0.5 µg/mL (≈ 0.285 µM)	0.125 µg/mL (≈ 0.0712 µM)	≤ 0.06 µg/mL	0.5 µg/mL (≈ 0.285 µM)	2 µg/mL (≈ 1.14 µM)	≤ 0.06 µg/mL	0.13 µg/mL	≤ 0.06 µg/mL	≤ 0.06 µg/mL	32 µg/mL (≈ 18.2 µM)	0.5 µg/mL (≈ 0.285 µM)	≤ 0.06 µg/mL	0.5 µg/mL (≈ 0.285 µM)	≤ 0.06 µg/mL	MIC [18]: 2 µg/mL (≈ 1.14 µM); MIC [19]: 0.25 µg/mL (≈ 0.142 µM); MIC [20]: 2 µg/mL (≈ 1.14 µM)
CNC(CC(C)C)C(=O)NC1C(=O)NC(CC(N)=O)C(=O)NC2C(=O)NC3C(=O)NC(C(=O)NC(C(=O)O)c4cc(O)cc(O)c4-c4cc3ccc4O)C(OC3CC(C)(N)C(O)C(C)O3)c3ccc(c(Cl)c3)Oc3cc2cc(c3OC2OC(CO)C(O)C(O)C2OC2CC(C)(NCc3ccc(-c4ccccc4)cc3)C(O)C(C)O2)Oc2ccc(cc2)C1O (stereo not drawn) [Compound 185]	4.7 µg/mL	≤ .06 µg/mL	≤ .06 µg/mL	≤ .06 µg/mL	≤ .06 µg/mL	≤ .06 µg/mL	≤ .06 µg/mL	≤ .06 µg/mL	≤ .06 µg/mL	≤ .06 µg/mL	≤ .06 µg/mL	≤ .06 µg/mL	0.060 µg/mL	≤ .06 µg/mL	≤ .06 µg/mL	8 µg/mL (≈ 4.64 µM)	≤ .06 µg/mL	≤ .06 µg/mL	0.125 µg/mL (≈ 0.0725 µM)	≤ .06 µg/mL	MIC [18]: ≤ .06 µg/mL; MIC [19]: ≤ .06 µg/mL; MIC [20]: ≤ .06 µg/mL
